Values quoted from earlier work, collected in article PMC8468039, “Development of New Meridianin/Leucettine-Derived Hybrid Small Molecules as Nanomolar Multi-Kinase Inhibitors with Antitumor Activity” (Biomedicines, 2021).

Tests used:
Conditions in all cases: cited from earlier work
DYRK-1A = system: DYRK-1A; design: method as in PMID 21615147, PMID 19879673, PMID 22998443
DYRK-2 = system: DYRK-2; design: method as in PMID 21615147, PMID 19879673, PMID 22998443
CLK-1 = system: CLK-1; design: method as in PMID 21615147, PMID 19879673, PMID 22998443
CLK-3 = system: CLK-3; design: method as in PMID 8383730, PMID 21615147, PMID 19879673, PMID 22998443

For CN1C(=O)/C(=C/c2ccc3c(c2)OCO3)N=C1N [leucettamine B, Leucettamine B], the IC50 (DYRK-1A) is listed as 2.8 µM, the IC50 (DYRK-2) is listed as 1.5 µM and the IC50 (CLK-1) is listed as 0.4 µM. The IC50 (CLK-3) was 6.4 µM.
